The values below come from patent US6716833B2, “Acetylenic α-amino acid-based sulfonamide hydroxamic acid tace inhibitors” (priority 1999, dated 2004).

Structures are written as SMILES.

Common to all, as to format: biochemical
One test addresses T1, MMP-1 (Homo sapiens, UniProt P03956).
T1 sequence (P03956 100-469): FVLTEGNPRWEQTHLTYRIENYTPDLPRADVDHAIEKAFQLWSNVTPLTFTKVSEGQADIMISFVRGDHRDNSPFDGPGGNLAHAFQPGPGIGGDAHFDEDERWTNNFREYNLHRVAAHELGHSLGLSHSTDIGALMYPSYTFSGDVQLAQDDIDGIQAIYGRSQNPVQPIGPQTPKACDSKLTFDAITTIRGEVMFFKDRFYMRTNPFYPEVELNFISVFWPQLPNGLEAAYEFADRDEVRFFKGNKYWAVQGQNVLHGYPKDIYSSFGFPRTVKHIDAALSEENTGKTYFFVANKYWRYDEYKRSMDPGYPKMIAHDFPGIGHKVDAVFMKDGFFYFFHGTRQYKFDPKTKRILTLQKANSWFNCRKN
Briefly: MMP-1 inhibition (thiopeptide or fluorescent peptide substrate). Conditions: read-out: MMP-1 IC50.

The next test deals with MMP-9 (Homo sapiens, UniProt P14780). Briefly: MMP-9 inhibition (thiopeptide or fluorescent peptide substrate). Conditions: read-out: MMP-9 IC50.
A further test concerns the target MMP-13 (Homo sapiens, UniProt P45452). Briefly: MMP-13 inhibition (thiopeptide or fluorescent peptide substrate). Conditions: read-out: MMP-13 IC50.
The target in test [1] is TNF-α converting enzyme (TACE) (Homo sapiens, UniProt P78536). Briefly: TACE inhibition (fluorescent peptidyl substrate). Conditions: read-out: TACE IC50.
TNF-α converting enzyme (TACE), sequence (P78536 215-824, species assumed): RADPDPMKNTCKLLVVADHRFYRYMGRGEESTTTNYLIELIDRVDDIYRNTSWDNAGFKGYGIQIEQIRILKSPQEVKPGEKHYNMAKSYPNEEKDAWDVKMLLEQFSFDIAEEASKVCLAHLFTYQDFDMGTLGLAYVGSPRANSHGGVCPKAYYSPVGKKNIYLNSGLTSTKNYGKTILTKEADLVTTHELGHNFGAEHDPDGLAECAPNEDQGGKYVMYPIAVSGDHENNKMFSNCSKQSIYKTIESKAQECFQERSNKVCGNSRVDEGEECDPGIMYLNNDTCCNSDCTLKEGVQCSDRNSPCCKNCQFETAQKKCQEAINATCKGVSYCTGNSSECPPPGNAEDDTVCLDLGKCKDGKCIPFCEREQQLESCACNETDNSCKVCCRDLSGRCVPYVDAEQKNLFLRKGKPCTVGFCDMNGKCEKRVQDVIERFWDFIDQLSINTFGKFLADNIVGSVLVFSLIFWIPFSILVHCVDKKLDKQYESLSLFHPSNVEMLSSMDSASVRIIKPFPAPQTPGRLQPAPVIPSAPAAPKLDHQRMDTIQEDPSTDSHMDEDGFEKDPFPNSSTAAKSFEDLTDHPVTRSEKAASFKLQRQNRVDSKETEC

MMP-9, sequence (P14780 94-707): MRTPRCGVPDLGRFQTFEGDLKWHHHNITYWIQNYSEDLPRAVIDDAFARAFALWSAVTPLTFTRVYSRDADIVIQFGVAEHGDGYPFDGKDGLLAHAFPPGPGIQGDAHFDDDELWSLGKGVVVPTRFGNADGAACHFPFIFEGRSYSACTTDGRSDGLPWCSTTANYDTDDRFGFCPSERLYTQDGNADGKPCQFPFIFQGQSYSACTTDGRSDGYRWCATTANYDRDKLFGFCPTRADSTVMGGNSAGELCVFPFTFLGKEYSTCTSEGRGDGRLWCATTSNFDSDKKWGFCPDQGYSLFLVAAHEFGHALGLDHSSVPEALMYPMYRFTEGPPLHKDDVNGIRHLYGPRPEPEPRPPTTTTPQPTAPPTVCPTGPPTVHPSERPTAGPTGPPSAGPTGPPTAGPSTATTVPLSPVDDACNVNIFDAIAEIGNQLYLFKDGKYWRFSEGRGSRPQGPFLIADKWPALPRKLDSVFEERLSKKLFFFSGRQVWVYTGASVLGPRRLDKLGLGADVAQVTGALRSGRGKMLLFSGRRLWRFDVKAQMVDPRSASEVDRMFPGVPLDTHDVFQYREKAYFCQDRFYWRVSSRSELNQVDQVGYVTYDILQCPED
Method for MMP-9: The enzyme activity is measured by the rate of the color increase. The thiopeptide substrate is made up fresh as a 20 mM stock in 100% DMSO and the DTNB is dissolved in 100% DMSO as a 100 mM stock and stored in the dark at room temperature. Both the substrate and DTNB are diluted together to 1 mM with substrate buffer (50 mM HEPES pH 7.5, 5 mM CaCl2) before use. The stock of enzyme is diluted with buffer (50 mM HEPES, pH 7.5, 5 mM CaCl2, 0.02% Brij) to the desired final concentration.
Alternatively, a fluorescent peptide substrate is used. In this test procedure, the peptide substrate contains a fluorescent group and a quenching group. Upon cleavage of the substrate by an MMP, the fluorescence that is generated is quantitated on the fluorescence plate reader. The assay is run in HCBC assay buffer (50 mM HEPES, pH 7.0, 5 mM Ca^+2, 0.02% Brij, 0.5% Cysteine), with human recombinant MMP-1, MMP-9, or MMP-13. […] For the assay, substrate and enzymes are diluted in HCBC buffer to the desired concentrations. Compounds are added to the 96 well plate containing enzyme and the reaction is started by the addition of substrate.
For either the thiopeptide or fluorescent peptide test procedures, the slope of the line is calculated and represents the reaction rate. The linearity of the reaction rate is confirmed (r^2>0.85). The mean (x±sem) of the control rate is calculated and compared for statistical significance (p<0.05) with drug-treated rates using Dunnett's multiple comparison test.

Regarding `CC#CCOc1ccc(S(=O)(=O)N[C@@H](C(=O)NO)c2ccc(OCCNC(=O)OC(C)(C)C)cc2)cc1` [Example 199, tert-Butyl 2-{4-[(1R)-1-({[4-(2-Butynyloxy)phenyl]sulfonyl}amino)-2-(hydroxyamino)-2-oxoethyl]phenoxy}ethylcarbamate], the half-maximal inhibitory concentration (IC50) (in general, the point on the concentration scale where inhibition reaches its midpoint) is approximately 10000 nM on MMP-1, 862 nM at MMP-9, 139 nM at MMP-13 and 42 nM in test [1].
The matching figures for `CC#CCOc1ccc(S(=O)(=O)N[C@@H](C(=O)NO)c2ccc(OCCN)cc2)cc1` [Example 200, (2R)-2-[4-(2-Aminoethoxy)phenyl]-2-({[4-(2-butynyloxy)phenyl]sulfonyl}amino)-N-hydroxyethanamide]: approximately 10000 nM, 518 nM, 176 nM and 15 nM.
Regarding `CC#CCOc1ccc(S(=O)(=O)N[C@@H](C(=O)NO)c2ccc(OCCNC(C)=O)cc2)cc1` [Example 201, (2R)-2-{4-[2-(Acetylamino)ethoxy]phenyl}-2-({[4-(2-butynyloxy)phenyl]sulfonyl}amino)-N-hydroxyethanamide], the IC50 on MMP-1 is approximately 10000 nM; at MMP-9, 569 nM; on MMP-13 it was 73 nM; in test [1], 9.4 nM.
As for `CC#CCOc1ccc(S(=O)(=O)N(C)C(C(=O)NO)c2ccccc2)cc1` (centres unmarked) [Example 211, 2-[{[4-(2-Butynyloxy)phenyl]sulfonyl}(methyl)amino]-N-hydroxy-2-phenylacetamide], the 50% inhibitory concentration (IC50) worked out at 496 nM on MMP-1, 43 nM on MMP-9, 20 nM at MMP-13 and 8 nM in test [1].
With `CC#CCOc1ccc(S(=O)(=O)N2CCN(C(=O)N3CCOCC3)CC2C(=O)NO)cc1` (centres unmarked) [Example 215, 1-(4-but-2-ynyloxy-Benzenesulfonyl)-4-(morpholine-4-carbonyl)-piperazine-2-carboxylic Acid Hydroxyamide], the IC50 at MMP-1 is 695 nM; at MMP-9 it was 60 nM; on MMP-13, 39 nM; in test [1], 35 nM.
With `CC#CCOc1ccc(S(=O)(=O)N2CCN(C(=O)N3CCCC3)CC2C(=O)NO)cc1` (centres unmarked) [Example 217, 1-(4-but-2-ynyloxy-Benzenesulfonyl)-4-(pyrrolidine-1-carbonyl)-piperazine-2-carboxylic Acid Hydroxyamide], the IC50 at MMP-1 was determined as 1250 nM; at MMP-9, 209 nM; at MMP-13, 83 nM; in test [1] it was 28 nM.
For `CC#CCOc1ccc(S(=O)(=O)N2CCN(C(=O)N(C(C)C)C(C)C)CC2C(=O)NO)cc1` (centres unmarked) [Example 218, 4-(4-but-2-ynyloxy-Benzenesulfonyl)-piperazine-1,3-dicarboxylic Acid 1-Diisopropylamide 3-Hydroxyamide], in that order: 3290 nM, 822 nM, 213 nM and 49 nM.
`CC#CCOc1ccc(S(=O)(=O)N2CCN(C(=O)N(C)c3ccccc3)CC2C(=O)NO)cc1` (centres unmarked) [Example 220, 4-(4-but-2-ynyloxy-Benzenesulfonyl)-piperazine-1,3-dicarboxylic Acid 3-Hydroxyamide 1-(Methyl-phenyl-amide)]: the half-maximal inhibitory concentration (IC50) turned out to be 1640 nM on MMP-1, 561 nM on MMP-9, 62 nM at MMP-13 and 20 nM in test [1].
For `CC#CCOc1ccc(S(=O)(=O)N2CCN(C(=O)Nc3ccc(OC)cc3)CC2C(=O)NO)cc1` (centres unmarked) [Example 221, 4-{[4-(2-Butynyloxy)phenyl]sulfonyl}-N-3-hydroxy-N-1-(4-methoxyphenyl)-1,3-piperazinedicarboxamide], in that order: 1510 nM, 576 nM, 182 nM and 69 nM.
Turning to `CC#CCOc1ccc(S(=O)(=O)N2CCN(C(=O)Nc3ccc(F)cc3)CC2C(=O)NO)cc1` (centres unmarked) [Example 222, 4-{[4-(2-Butynyloxy)phenyl]sulfonyl}-N-1-(4-fluorophenyl)-N-3-hydroxy-1,3-piperazinedicarboxamide], the half-inhibitory concentration (IC50) was 941 nM at MMP-1, 173 nM at MMP-9, 75 nM on MMP-13 and 30 nM in test [1].
The matching figures for `CC#CCOc1ccc(S(=O)(=O)N2CCN(C(=O)Nc3cc(Cl)cc(Cl)c3)CC2C(=O)NO)cc1` (centres unmarked) [Example 223, 4-{[4-(2-Butynyloxy)phenyl]sulfonyl}-N-1-(3,5-dichlorophenyl)-N-3-hydroxy-1,3-piperazinedicarboxamide]: 1720 nM, 642 nM, 153 nM and 83 nM.
For `CC#CCOc1ccc(S(=O)(=O)N2CCN(C(C)=O)CC2C(=O)NO)cc1` (centres unmarked) [Example 224, 4-Acetyl-1-(4-but-2-ynyloxy-benzenesulfonyl)-piperazine-2-carboxylic Acid Hydroxyamide], in that order: 357 nM, 88 nM, 22 nM and 13 nM.
For `CC#CCOc1ccc(S(=O)(=O)N2CCN(C(=O)CC)CC2C(=O)NO)cc1` (centres unmarked) [Example 225, 1-(4-but-2-ynyloxy-Benzenesulfonyl)-4-propionyl-piperazine-2-carboxylic Acid Hydroxyamide], in that order: 1000 nM, 727 nM, 230 nM and 17 nM.
Regarding `CC#CCOc1ccc(S(=O)(=O)N2CCN(C(=O)CNC(=O)OC(C)(C)C)CC2C(=O)NO)cc1` (centres unmarked) [Example 229, {2-[4-(4-but-2-ynyloxy-Benzenesulfonyl)-3-hydroxycarbamoyl-piperazin-1-yl]-2-oxo-ethyl}-carbamic Acid tert-Butyl Ester], the IC50 turned out to be 1010 nM on MMP-1, 322 nM at MMP-9, 85 nM at MMP-13 and 64 nM in test [1].
As for `CC#CCOc1ccc(S(=O)(=O)N2CCN(C(=O)CN)CC2C(=O)NO)cc1` (centres unmarked) [Example 230, 4-Aminoacetyl-1-(4-but-2-ynyloxy-benzenesulfonyl)-piperazine-2-carboxylic Acid Hydroxyamide], the half-maximal inhibitory concentration (IC50) on MMP-1 turned out to be 8500 nM; on MMP-9, 1230 nM; at MMP-13, 410 nM; in test [1], 127 nM.
In the case of `CC#CCOc1ccc(S(=O)(=O)N2CCN(C(=O)C3(C)COC(C)(C)OC3)CC2C(=O)NO)cc1` (centres unmarked) [Example 231, 1-{[4-(2-Butynyloxy)phenyl]sulfonyl}-N-hydroxy-4-[(2,2,5-trimethyl-1,3-dioxan-5-yl)carbonyl]-2-piperazinecarboxamide], the IC50 at MMP-1 turned out to be 2450 nM; on MMP-9, 1110 nM; on MMP-13, 355 nM; in test [1], 59 nM.
Take `CC#CCOc1ccc(S(=O)(=O)N2CCN(C(=O)C(C)(CO)CO)CC2C(=O)NO)cc1` (centres unmarked) [Example 232, 1-{[4-(2-Butynyloxy)phenyl]sulfonyl}-N-hydroxy-4-[3-hydroxy-2-(hydroxymethyl)-2-methylpropanoyl]-2-piperazinecarboxamide]: the IC50 at MMP-1 came to 1680 nM; at MMP-9 it was 785 nM; at MMP-13 it was 289 nM; in test [1] it was 44 nM.
